Data reported in US10894777B2, “TG2 inhibitor piperazine compounds and uses thereof” (UNIVERSITY OF OTTAWA, priority 2016, dated 2021).
Non-standard residues stand in square brackets, D forms with d. Residues, ends and D or L forms follow the SMILES beside them. *: point of attachment. DON = [N-]=[N+]=CC(=O)CC[C@H](N)C(=O)O; Cbz = O=C(OCc1ccccc1)*

Legend:
[1] = target: T1, TG2 (Homo sapiens, UniProt P21980); assay: In vitro GTP binding assay after inhibition of hTG2 (BODIPY GTP-γ-S); conditions: inhibitor 2×KI, 30 min; 3 μM GTP-γ-S FL BODIPY
T1 sequence (P21980 1-687): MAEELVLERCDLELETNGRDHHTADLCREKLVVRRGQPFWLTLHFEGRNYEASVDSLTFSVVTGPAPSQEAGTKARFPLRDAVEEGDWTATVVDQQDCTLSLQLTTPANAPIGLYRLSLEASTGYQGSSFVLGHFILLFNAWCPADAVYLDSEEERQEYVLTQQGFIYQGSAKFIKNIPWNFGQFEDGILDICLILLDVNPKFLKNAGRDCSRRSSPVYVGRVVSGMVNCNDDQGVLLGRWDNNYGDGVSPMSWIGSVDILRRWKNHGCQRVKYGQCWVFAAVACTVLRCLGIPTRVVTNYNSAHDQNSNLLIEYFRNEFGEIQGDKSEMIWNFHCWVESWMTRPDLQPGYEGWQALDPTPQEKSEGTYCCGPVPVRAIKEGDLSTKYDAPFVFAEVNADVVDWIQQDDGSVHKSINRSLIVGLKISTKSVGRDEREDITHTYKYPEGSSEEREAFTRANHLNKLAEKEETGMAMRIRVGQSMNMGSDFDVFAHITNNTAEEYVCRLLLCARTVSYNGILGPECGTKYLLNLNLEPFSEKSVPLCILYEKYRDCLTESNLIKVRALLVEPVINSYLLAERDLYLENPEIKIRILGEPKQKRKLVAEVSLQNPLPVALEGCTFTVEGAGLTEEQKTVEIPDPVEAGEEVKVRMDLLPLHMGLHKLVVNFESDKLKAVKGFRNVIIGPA
Description: In vitro GTP binding assay. GTP binding was measured using a method similar to that reported previously (McEwen, D. P. et al., Anal. Biochem. (2001), 291 (1): 109-117). […] The buffer was then exchanged to 100 mM MOPS (pH=7.0), 1 mM EGTA and 5 mM MgCl2 to remove calcium using a 10-kDa molecular weight cut off membrane. The fluorescent GTP analog was then added to give a final concentration of 3.0 μM and fluorescence was then measured on a microplate reader after 10 minutes of incubation (Ex/Em: 490/520 nm).

[2] = target: T1, TG2; assay: Colorimetric transamidase activity assay (AL5 substrate), hTG2; type: biochemical; conditions: Table 7
Description: In Vitro Assays. Colorimetric transamidase activity assay. The activities of hTG1, hTG2 and hTG6 were measured via a colorimetric assay using the chromogenic substrate Cbz-Glu(γ-p-nitrophenyl ester)Gly (AL5). The assay was conducted at 25° C. in 100 mM MOPS buffer (pH 6.5) containing 3.0 mM CaCl2 and 50 μM EDTA. […] A stock solution of AL5 was prepared in DMSO such that the final concentration of this co-solvent was constant at 2.5% v/v. Stock solutions of the inhibitors were made in the buffer system previously described. The reaction was initiated with the addition of 40-60 mU/mL of the respective enzyme (0.10 μM hTG1, 0.25 μM hTG2 or 0.32 μM hTG6). Product formation was monitored at 405 nm in a polystyrene 96-well microplate using a BioTek Synergy 4 plate reader. […] Observed first-order rate constants of inactivation (kobs) were determined from non-linear regression fit to a mono-exponential model (Equation 1) of the observed absorbance of the enzymatic hydrolysis product, p-nitrophenolate (pNP). […] Experiments were done in triplicate and variation between repeats was less than 30%.

[3] = target: T1, TG2; assay: Kinetic inactivation of purified recombinant human TG2, continuous spectrophotometric activity assay (Examples 3, 10); type: biochemical; design: made in house; conditions: Table 4
Description: Kinetic studies were carried out in vitro, using purified recombinant human TG2 (Roy, I. et al., Protein Expr. Purif. 87: 41-46, 2013) and a direct, continuous spectrophotometric activity assay (Leblanc, A. et al., Biochemistry 40: 8335-8342, 2001).
Kinetics. Kinetic runs were performed at 25° C. in 100 mM MOPS buffer (pH 7.0) containing 3 mM CaCl2 and 50 μM EDTA. […] Stock solutions of the substrate and inhibitors were prepared in DMF such that the final concentration of this co-solvent was constant at 10% v/v. Reactions were initiated with the addition of enzyme with an activity of approximately 0.05 U/mL. Kinetic evaluation was carried out by the method of Stone and Hofsteenge (Stone, S. R. and Hofsteenge, J., Biochem. J. 230: 497-502, 1985). […] Observed first-order rate constants of inactivation were determined from non-linear regression, to a mono-exponential model. These rate constants were in turn fit to equation 1 by non-linear regression, providing the kinetic parameters
Kinetic parameters were determined as described above.

[4] = tested on: TG2 fusion protein mCer-TG2-YFP; assay: Fluorescence lifetime imaging (FLIM) of mCer-TG2-YFP conformation, SCC-13 cells; type: cell-based, human; conditions: 10 μM A23187, 24 h; control 2.94 ns
Description: We monitored the impact of each inhibitor on intracellular TG2 structure using FLIM (Fluorescence Lifetime Imaging Microscopy). FLIM is a quantitative method of assessing fluorescence lifetime that measures energy transfer between donor and accept probes Fluorescence lifetime is measured in nanoseconds and a short lifetime correlates with close contact between probes (FIG. 29B). An advantage of this method is that fluorescent lifetimes are independent of probe concentration. In the present experiments, we expressed in cells a TG2 fusion protein in which the donor probe (mCER) is fused to the N-terminus and the acceptor probe (YFP) at the C-terminus (FIG. 29B). mCER and YFP comprise an ideal donor/acceptor pair; the donor probe is excited by laser illumination and energy transfer to the acceptor is monitored. The fluorescent lifetime is shorter when TG2 is in the closed conformation which brings mCER and YFP close together. SCC-13 cells were electroporated with empty vector, mCER-TG2 or mCER-TG2-YFP.
Fluorescence lifetime imaging. Fluorescence lifetime images were acquired using FLIM system (Alba 5 from ISS). […] Emission was observed through bandpass filter 480/35 nm (Chroma Technology) and detected by a photomultiplier H7422-40 (Hamamatsu). FLIM data were acquired using time-domain modality (SPC-830 TCSPC module from Becker and Hickl GmbH). […] To account for intensity heterogeneity within single intensity images, two to five consecutive scans were acquired and summed to build FLIM intensity image for lifetime analysis. […] FLIM data were analyzed using VistaVision Suite software (Vista v.213 from ISS). Lifetime images were generated by fitting data using single exponential intensity decay model. Intensity threshold for lifetime analysis was set of at least 3-fold above the intensity of dim cells and fitting procedure was performed for binned pixels at level of 3 (7×7 pixels). Lifetime distribution within image is represented with histogram showing pixel frequency of specific lifetime. The average lifetime values with standard deviations were calculated based on all processed pixels in lifetime image. FRET values were calculated according to the formula ET=1−(τDA/τD), where τD is the lifetime of donor (mCer-TG2) and τDA is the lifetime of donor-acceptor pair (mCer-TG2—YFP).

[5] = tested on: SCC-13 cells; assay: Spheroid formation / survival assay, SCC-13 cells (ECS cells); type: cell-based, human; conditions: for spheroid formation with kinase inhibitor: PF-573228 10 μM, 6 d
Description: Spheroid formation assay. Cells, maintained as monolayer cultures in growth medium consisting of DMEM (Invitrogen, Frederick, Md.) supplemented with 4.5 mg/ml D-glucose, […] L-glutamine, […] sodium pyruvate, and 5% fetal calf serum, were harvested, collected by centrifugation, and resuspended in spheroid medium comprising DMEM/F12 (1:1) (DMT-10-090-CV, Mediatech Inc., Manassas, Va.) supplemented with 2% B27 serum-free supplement (17504-044, Invitrogen, Frederick, Md.), 20 ng/ml EGF (E4269, Sigma, St. Louis, Mo.), 0.4% bovine serum albumin (B4287, Sigma) and 4 μg/ml insulin (19278 Sigma, St. Louis, Mo.). The cells (40,000) were plated in 9.6 cm^2 wells in Costar six well ultra-low attachment cluster dishes (4371, Corning, Tewksbury, Mass.). Spheroid size and number was monitored with time in culture as previously described (Adhikary, G. et al., PLoS One 8:e84324, 2013).
Spheroid formation assay. Spheroid formation assays were exactly as outlined previously (Adhikary, G. et al., PLoS ONE 8:e84324, 2013), except that the spheroids were grown in six well ultra-low attachment Costar cluster dishes (4371, Corning, Tewksbury, Mass.).
Spheroid formation assay. Spheroid formation assays were as reported previously (Adhikary, G. et al., PLoS One 8:e84324, 2013), except that the spheroids were grown in 6-well ultralow attachment Costar cluster dishes (Corning).

[6] = tested on: glioblastoma multiforme (GBM) cell lines; conditions: cited from earlier work
[7] = tested on: EGFR; conditions: cited from earlier work; for EGFR levels: U87, but not T98G cells, 24 hrs
[8] = target: FAK kinase (Homo sapiens, UniProt Q05397)
FAK kinase, sequence (Q05397 whole entry): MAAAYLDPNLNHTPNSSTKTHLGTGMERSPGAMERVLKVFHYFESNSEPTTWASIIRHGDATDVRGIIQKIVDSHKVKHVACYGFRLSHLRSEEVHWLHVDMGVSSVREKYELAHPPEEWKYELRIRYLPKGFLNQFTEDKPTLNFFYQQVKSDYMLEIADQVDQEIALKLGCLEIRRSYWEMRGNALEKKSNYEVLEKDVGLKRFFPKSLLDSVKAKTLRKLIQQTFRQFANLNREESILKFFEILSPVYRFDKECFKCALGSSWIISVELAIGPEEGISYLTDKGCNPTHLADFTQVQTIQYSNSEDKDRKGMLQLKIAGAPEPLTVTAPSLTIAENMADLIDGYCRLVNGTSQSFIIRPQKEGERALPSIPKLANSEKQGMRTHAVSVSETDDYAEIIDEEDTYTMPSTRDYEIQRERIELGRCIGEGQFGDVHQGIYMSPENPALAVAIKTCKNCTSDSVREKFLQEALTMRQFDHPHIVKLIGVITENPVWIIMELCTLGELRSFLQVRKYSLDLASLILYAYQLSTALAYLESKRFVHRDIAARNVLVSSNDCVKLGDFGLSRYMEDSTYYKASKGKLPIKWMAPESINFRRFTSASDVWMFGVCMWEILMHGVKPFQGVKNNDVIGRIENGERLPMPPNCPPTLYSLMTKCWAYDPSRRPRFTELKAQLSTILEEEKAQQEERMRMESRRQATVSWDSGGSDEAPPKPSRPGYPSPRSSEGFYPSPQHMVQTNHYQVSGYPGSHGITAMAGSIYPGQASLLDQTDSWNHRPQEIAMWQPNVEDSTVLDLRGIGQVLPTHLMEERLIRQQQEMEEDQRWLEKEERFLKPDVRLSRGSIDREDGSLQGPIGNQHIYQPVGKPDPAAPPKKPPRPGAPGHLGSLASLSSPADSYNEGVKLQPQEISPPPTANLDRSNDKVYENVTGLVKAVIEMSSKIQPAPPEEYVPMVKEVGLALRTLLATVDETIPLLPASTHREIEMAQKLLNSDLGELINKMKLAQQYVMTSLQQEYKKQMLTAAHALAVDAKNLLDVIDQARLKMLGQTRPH
Description: SCC-13 cells (40,000 per well) were grown in spheroid medium in attached (monolayer) or non-attached (spheroid, ECS cell). Cells were collected after 10 d and lysates were prepared for immunoblot. In (B), SCC-13 cells spheroid were grown for 8 d and extracts were immunoprecipitated as indicated prior to immunoblot. […] Cells were grown in spheroid medium in monolayer culture for 10 d prior to collection of lysates for immunoblot. […] In (J), (K), and (L), cells were double-electroporated with indicated siRNA and 24 h later plated for spheroid formation in the presence of the indicated inhibitor. […] The plotted values are mean±SEM and asterisks indicate significant change compared to control, n=3, p<0.005.
Immunoblot. Equivalent amounts of protein were electrophoresed on denaturing and reducing 10% polyacrylamide gels and transferred to nitrocellulose membrane. […] Secondary antibody binding was visualized using ECL Prime (Amersham) chemiluminescence detection technology.

[9] = tested on: ΔNp63α; assay: ΔNp63α level immunoblot, YAP1-siRNA SCC-13 cells; type: cell-based, human; conditions: 1 μM lactacystin, 24 h
Description: In (A), cells were grown in spheroid medium in monolayer or spheroid culture and after 10 d harvested for immunoblot. In (B), SCC13-Control-shRNA and SCC13-TG2-shRNA2 cells were grown in monolayer culture in spheroid medium and lysates were collected for immunoblot detection of the indicated epitopes. […] In (F), SCC13-Control-shRNA and SCC13-TG2-shRNA2 cells were grown as monolayers in spheroid medium and lysates collected at 6 d for marker detection. In (G), SCC-13 cells were double-electroporated with Control- or TG2-siRNA and given 24 h to recover before being seeded on chamber slides. The following day, cells were fixed in 4% paraformaldehyde, stained with anti-YAP1 and appropriate secondary antibody, and co-stained with DAPI. In (H), SCC-13 cells, double-electroporated with Control- or TG2-siRNA, were grown in spheroid medium for 48 h prior to extracts being prepared for assay of ΔNp63α mRNA by qRT-PCR. In (I), SCC-13 cells were grown as spheroids and at day 8 lysates were collected for immunoprecipitation/immunoblot. In (J), SCC-13 cells were double-electroporated with Control- or YAP-siRNA followed by treatment with 1 μM lactacystin in monolayer culture. Extracts were prepared after an additional 24 h. In (K), SCC-13 cells were double-electroporated with Control- or YAPsiRNA and after 2 d in monolayer culture extracts were prepared for immunoblot. […]

SMILES: C=CC(=O)NCCCC[C@H](NC(=O)OCc1ccccc1)C(=O)N1CCN(C(=O)c2cccc3ccccc23)CC1 [AA9, (S)-benzyl (1-(4-(1-naphthoyl)piperazin-1-yl)-6-acrylamido-1-oxohexan-2-yl)carbamate]
- GTP binding of hTG2 after incubation with inhibitor [1]: abolish GTP binding nearly completely

SMILES: C=CC(=O)NCCCC[C@H](NC(=O)OCc1ccccc1)C(=O)N1CCN(S(=O)(=O)C(C)C)CC1 [Compound 133, (S)-benzyl(6-acrylamido-1-(4-(isopropylsulfonyl)piperazin-1-yl)-1-oxohexan-2-yl)carbamate]
- melting point: 48 to 49 °C
- kinact ([2]; read-out: kinact (converted)): 0.00833 s⁻¹
- kinact/KI ([2]; read-out: kinact/KI (10^3M^−1 min^−1)): 912 M⁻¹ s⁻¹
- kinact [3]: 0.0115 s⁻¹
- kinact/KI ([3]; read-out: kinact/Ki (μM^−1 min^−1), for ^a no saturation observed, efficiency obtained from initial slope): 2800 M⁻¹ s⁻¹

SMILES: CNc1ccc2oc(C[C@H]3O[C@@]4(CC[C@H]3C)O[C@H]([C@H](C)C(=O)c3ccc[nH]3)[C@H](C)C[C@H]4C)nc2c1C(=O)O [Compound A23187, reference compound]
- fluorescence lifetime of mCer-TG2-YFP [4]: ~3.1 ns

SMILES: NCCCCCNC(=S)Nc1ccc2c(c1)C(=O)OC21c2ccc(O)cc2Oc2cc(O)ccc21 [FC, fluorescein cadaverine, reference compound]
- spheroid number, pre-formed spheroids ([5]; spheroids grown for 8 days, then treated): reduced spheroid number

SMILES: CN(C)c1cccc2c(S(=O)(=O)NCCCCCN)cccc12 [MDC, monodansylcadaverine]
- proliferation of GBM cell lines [6]: reduce proliferation in two out of three glioblastoma multiforme (GBM) cell lines tested
- EGFR levels [7]: reduced the levels of EGFR
- EGFR phosphorylation in response to EGF ([7]; U87 cells, 30 min pretreatment): greatly reduced the extent of EGFR phosphorylation

SMILES: CS(=O)(=O)c1cccc(CNc2nc(Nc3ccc4c(c3)CCC(=O)N4)ncc2C(F)(F)F)c1 [PF-573228, reference compound]
- spheroid formation with kinase inhibitor [5]: markedly reduced spheroid formation
- FAK kinase activity [8]: reduced FAK kinase activity

SMILES: CC(C)(C)n1nc(-c2ccc(Cl)cc2)c2c(N)ncnc21 [PP2, reference compound]
- spheroid formation with kinase inhibitor [5]: suppressed spheroid formation

SMILES: COC(=O)[C@H](CC(C)C)NC(=O)[C@@H]1CCCN1C(=O)[C@@H](NC(=O)[C@H](CCC(=O)C=[N+]=[N-])NC(=O)OCc1ccccc1)C(C)C [Z-DON] (Cbz-[DON]VPL-OMe)
- proliferation of GBM cell lines [6]: reduce proliferation in two out of three glioblastoma multiforme (GBM) cell lines tested
- EGFR levels [7]: reduced the levels of EGFR

SMILES: CC(=O)N[C@@H](CSC(=O)[C@]1([C@@H](O)C(C)C)NC(=O)[C@H](C)[C@@H]1O)C(=O)O [lactacystin]
- ΔNp63α reduction caused by YAP1-siRNA [9]: partially reversed
